# Test results reported in patent US11866430B2, “Naphthyridinone compounds useful as T cell activators” (priority 2018, dated 2024).
# Where “and” joins values, the source holds several entries; their conditions need not be identical. Identical values can stand only once. Like-named read-outs stand apart in the source and are kept apart here.
# Assays:
# naïve human CD8 T cells = assay: cells; conditions: Homo sapiens, T-cell, read-out: HuCD8 INFG Normalized EC50, anti-CD3 plus anti-CD28 as baseline; 3 μM Example 40 co-stimulation as 100% activation
# Experimental: Frozen naïve human CD8 T cells were thawed in ATM-V media, incubated for 2 h in 37° C., and counted. The 384-well tissue culture plate was coated overnight at 4° C. with 20 μl anti-human CD3 at 0.05 μg/mL in PBS, which was removed off the plate before 40,000 cells per 40 microliters CD8 T cells with 0.1 μg/mL soluble anti-human CD28 were added to each well. The compounds were transferred using an Echo liquid handler to the cell plate immediately after the cells were plated. After 20 h incubation at 37° C. incubator, 3 microliters per well supernatants transferred into a new 384-well white assay plate for cytokine measurement.
# Interferon-γ (IFN-γ) was quantitated using the AlphaLISA kit (Cat #AL217) as described by the manufacturer manual (Perkin Elmer). The counts from each well were converted to IFN-γ concentration […].
# human DGKζ [1] = target: T1, human DGKζ (Homo sapiens (Human), UniProt Q13574); assay: DGKζ LIPGLO assay (extruded liposome substrate); type: biochemical; conditions: extruded liposome substrate; read-out: DGKζ LIPGLO IC50
# T1 sequence (Q13574 other isoform, or with tags, fused parts or gaps): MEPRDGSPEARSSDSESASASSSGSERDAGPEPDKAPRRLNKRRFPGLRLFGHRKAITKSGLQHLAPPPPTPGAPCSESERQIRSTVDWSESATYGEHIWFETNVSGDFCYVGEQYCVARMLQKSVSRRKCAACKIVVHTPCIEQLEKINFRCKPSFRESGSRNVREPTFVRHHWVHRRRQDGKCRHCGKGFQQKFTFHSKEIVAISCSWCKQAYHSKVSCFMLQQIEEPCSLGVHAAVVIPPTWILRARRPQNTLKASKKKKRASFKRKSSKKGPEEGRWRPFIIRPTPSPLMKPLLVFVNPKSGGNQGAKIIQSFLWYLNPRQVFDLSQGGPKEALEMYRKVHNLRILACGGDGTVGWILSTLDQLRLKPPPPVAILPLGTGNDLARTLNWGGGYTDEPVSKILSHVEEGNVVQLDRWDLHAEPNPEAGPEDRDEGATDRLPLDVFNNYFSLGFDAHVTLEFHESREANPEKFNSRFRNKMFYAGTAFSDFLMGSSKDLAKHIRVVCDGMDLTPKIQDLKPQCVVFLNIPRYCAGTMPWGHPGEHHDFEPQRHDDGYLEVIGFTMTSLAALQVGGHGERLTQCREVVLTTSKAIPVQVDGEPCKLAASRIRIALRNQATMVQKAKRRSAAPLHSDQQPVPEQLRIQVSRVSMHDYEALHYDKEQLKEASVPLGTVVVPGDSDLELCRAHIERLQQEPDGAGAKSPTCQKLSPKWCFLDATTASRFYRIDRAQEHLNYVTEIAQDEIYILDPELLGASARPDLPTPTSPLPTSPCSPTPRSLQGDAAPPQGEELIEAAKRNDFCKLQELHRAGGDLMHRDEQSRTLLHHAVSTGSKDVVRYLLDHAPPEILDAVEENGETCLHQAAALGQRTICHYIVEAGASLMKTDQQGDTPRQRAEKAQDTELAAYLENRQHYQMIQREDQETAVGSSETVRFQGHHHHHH
# How it was run: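 Recombinant DGKζ (Sf9-expressed, Ni/SEC/SP-purified) preincubated 10 min with extruded 100 nm PC/DAG/PS liposomes in 50 mM MOPS pH 7.5, 100 mM NaCl, 10 mM MgCl2, 1 μM CaCl2, 1 mM DTT. Started with 300 uM ATP solution (stock, pre-addition); 1 hr reaction. ADP-Glo luminescence; IC50 from 11 concentrations.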
# human DGKα = human DGKα (Homo sapiens (Human), UniProt P23743); assay: biochemical; conditions: detergent/lipid micelle substrate; read-out: DGKα IC50
# Sequence of human DGKα (P23743 other isoform, or with tags, fused parts or gaps): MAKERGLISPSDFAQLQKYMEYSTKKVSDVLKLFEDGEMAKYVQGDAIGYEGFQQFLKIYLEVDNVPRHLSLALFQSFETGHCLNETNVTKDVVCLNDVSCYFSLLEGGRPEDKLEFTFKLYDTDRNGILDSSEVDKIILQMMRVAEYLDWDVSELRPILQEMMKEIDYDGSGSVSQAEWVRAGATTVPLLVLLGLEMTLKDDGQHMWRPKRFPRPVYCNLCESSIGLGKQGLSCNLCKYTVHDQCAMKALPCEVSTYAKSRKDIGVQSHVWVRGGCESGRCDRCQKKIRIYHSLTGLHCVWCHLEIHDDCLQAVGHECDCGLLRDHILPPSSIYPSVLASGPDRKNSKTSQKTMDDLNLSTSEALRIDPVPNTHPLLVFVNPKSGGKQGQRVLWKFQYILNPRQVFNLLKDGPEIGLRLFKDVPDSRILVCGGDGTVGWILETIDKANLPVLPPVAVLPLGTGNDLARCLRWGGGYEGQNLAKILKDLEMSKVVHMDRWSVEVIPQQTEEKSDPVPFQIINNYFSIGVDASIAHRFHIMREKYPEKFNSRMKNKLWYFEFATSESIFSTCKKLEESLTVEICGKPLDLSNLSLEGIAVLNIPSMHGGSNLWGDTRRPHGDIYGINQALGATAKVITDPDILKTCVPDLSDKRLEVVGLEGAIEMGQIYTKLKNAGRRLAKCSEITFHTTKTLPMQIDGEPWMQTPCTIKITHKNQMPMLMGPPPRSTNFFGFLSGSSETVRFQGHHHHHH
# How it was run: (§1)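 Full-length human DGKα or DGKζ (C-terminal His tag, Sf9-expressed; 20 nM 4× stock) was preincubated 10 min at room temperature with PS/DAG octyl glucoside micelles in MOPS pH 7.5 buffer with MgCl2, CaCl2 and DTT. It was then started with ATP (300 uM addition) and run for 1 hr, with ADP-Glo luminescence read-out.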
# human DGKζ [2] = target: T1, human DGKζ; assay: DGKζ assay (detergent/lipid micelle substrate); type: biochemical; conditions: detergent/lipid micelle substrate; read-out: DGKζ IC50
# How it was run: as §1
# [3] = tested on: pre-activated CD4 T cells and Raji cells; assay: Raji CD4 T Cell IL2 Assay; type: cell-based
# [4] = tested on: Jurkat AP1-luciferase Reporter; assay: DGK AP1-Reporter Assay; type: cell-based
# Experimental: The Jurkat AP1-luciferase Reporter was generated using the Cignal Lenti AP1 Reporter (luc) Kit from SABiosciences (CLS-011L).
# The sample size was 30 nl per well; and one destination plate per source plate. The cell suspensions were prepared by transferring 40 mL cells (2×20 mL) to clean 50 mL conical tubes. The cells were concentrated by centrifugation (1200 rpm; 5 mins; ambient temperature). […] The cell plates were incubated for 20 minutes at 37° C., and 5% CO2.
# During the incubation, anti-CD3 antibody (αCD3) solutions were prepared by mixing 3 μl αCD3 (1.3 mg/mL) with 10 mL medium [final conc=0.4 μg/mL]. Next, 1.5 μl αCD3 (1.3 mg/mL) was mixed with 0.5 mL medium [final conc=4 μg/mL]. After 20 minutes, 10 μl medium was added to all wells in column 1, wells A to M, and 10 μl αCD3 (4 μg/mL) per well was added in column 1, rows N to P for reference. Then using a multi-channel pipette, 10 μl αCD3 (0.4 μg/mL) per well was added. The αCD3 stimulated +/− compound-treated cells were incubated at 37° C., 5% CO2 for 6 hours.
# During this incubation period. Steady-Glo (Promega E2520) reagent was slowly thawed on to ambient temperature. Next, 20 μl Steady-Glo reagent per well was added using a multi-drop Combi-dispenser. Bubbles were removed by centrifugation (2000 rpm, ambient temperature, 10 sees). The cells were incubated at room temperature for 5 minutes. Samples were characterized by measuring the Relative Light Units (RLU) with an using Envision Plate Reader Instrument on a luminescence protocol.
# [5] = read-out: API-Luciferase Reporter IC50, Table 3
# [6] = Homo sapiens, Jurkat, read-out: API-Luciferase Reporter IC50, Table 3
# [7] = Homo sapiens, Jurkat, read-out: DGKAP1 Lucif Reporter IC50, Table 4
SMILES,EC50 (naïve human CD8 T cells) [µM],IC50 (human DGKζ [1]),IC50 (human DGKα) [µM],IC50 (human DGKζ [2]) [µM],"IC50 ([3]; Homo sapiens, Raji) [µM]","IC50 [4, 5] [µM]",IC50 [3] [µM],"IC50 [4, 6] [µM]","IC50 [4, 7] [µM]"
"CCC(c1ccc(F)cc1)N1CCN(c2c(C#N)c(=O)n(C)c3ccc(C)nc23)CC1 (racemic) [Example 398, 4-{4-[1-(4-fluorophenyl)propyl]piperazin-1-yl}-1,6-dimethyl-2-oxo-1,2-dihydro-1,5-naphthyridine-3-carbonitrile]",1.21,> 240 µM and 49 µM,–,–,–,–,–,–,–
"COc1ccccc1C(c1ccc(F)cc1)N1CCN(c2c([N+](=O)[O-])c(=O)n(C)c3ccc(C#N)nc23)CC1 (single isomer, unassigned) [Example 19, 8-{4-[(4-fluorophenyl)(2-methoxyphenyl)methyl]piperazin-1-yl}-5-methyl-7-nitro-6-oxo-5,6-dihydro-1,5-naphthyridine-2-carbonitrile]",–,–,13,19,> 100,0.83,–,–,–
"COc1ccccc1C(c1ccc(F)cc1)N1CCN(c2c([N+](=O)[O-])c(=O)n(C)c3ccc(C#N)nc23)CC1 (single isomer, unassigned) [Example 20, 8-{4-[(4-fluorophenyl)(2-methoxyphenyl)methyl]piperazin-1-yl}-5-methyl-7-nitro-6-oxo-5,6-dihydro-1,5-naphthyridine-2-carbonitrile]",–,–,3.3,4.3,–,0.4,> 100,–,–
"Cn1c(=O)c([N+](=O)[O-])c(N2CCN(C(c3ccccc3)c3ccccc3O)CC2)c2nc(Br)ccc21 (single isomer, unassigned) [Example 78, 6-bromo-4-(4-((2-hydroxyphenyl)(phenyl)methyl)piperazin-1-yl)-1-methyl-3-nitro-1,5-naphthyridin-2(1H)-one]",–,–,12,> 240,–,–,> 100,0.14,–
"CC(c1ccc(F)cc1)N1CCN(c2c([N+](=O)[O-])c(=O)n(C)c3ccc(C#N)nc23)CC1 (stereo not drawn) [Example 43, 8-(4-(1-(4-fluorophenyl)ethyl)piperazin-1-yl)-5-methyl-7-nitro-6-oxo-5,6-dihydro-1,5-naphthyridine-2-carbonitrile]",–,–,0.037,6.3,–,–,–,0.4,–
"C#CCn1c(=O)c(C#N)c(N2CCN(Cc3c(C)cc(C)cc3O)CC2)c2nc(Br)ccc21 [Example 69, 6-bromo-4-(4-(2-hydroxy-4,6-dimethylbenzyl)piperazin-1-yl)-2-oxo-1-(prop-2-yn-1-yl)-1,2-dihydro-1,5-naphthyridine-3-carbonitrile]",–,–,1.3,13,> 100,–,–,0.51,–
"C#CCn1c(=O)c([N+](=O)[O-])c(N2CCN(C3CCc4ccc(OC)cc43)CC2)c2nc(C#N)ccc21 (stereo not drawn) [Example 138, 8-(4-(6-methoxy-2,3-dihydro-1H-inden-1-yl)piperazin-1-yl)-7-nitro-6-oxo-5-(prop-2-yn-1-yl)-5,6-dihydro-1,5-naphthyridine-2-carbonitrile]",–,–,32,0.73,> 100,–,–,0.66,–
"COCCn1c(=O)c([N+](=O)[O-])c(N2CCN(C3CCc4ccc(OC)cc43)CC2)c2nc(C#N)ccc21 (stereo not drawn) [Example 146, 8-(4-(6-methoxy-2,3-dihydro-1H-inden-1-yl)piperazin-1-yl)-5-(2-methoxyethyl)-7-nitro-6-oxo-5,6-dihydro-1,5-naphthyridine-2-carbonitrile]",–,–,> 240,36,> 100,–,–,1.87,–
"Cn1c(=O)c(C#N)c(N2CCN(Cc3ccccc3N)CC2)c2nc(Br)ccc21 [Example 211, 4-(4-(2-aminobenzyl)piperazin-1-yl)-6-bromo-1-methyl-2-oxo-1,2-dihydro-1,5-naphthyridine-3-carbonitrile]",–,–,0.25,> 240,–,–,–,0.52,–
"Cn1c(=O)c(C#N)c(N2CCN(Cc3ccccc3NS(C)(=O)=O)CC2)c2nc(Br)ccc21 [Example 212, N-(2-((4-(6-bromo-3-cyano-1-methyl-2-oxo-1,2-dihydro-1,5-naphthyridin-4-yl)piperazin-1-yl)methyl)phenyl)methanesulfonamide]",–,–,2.2,> 240,–,–,–,1.14,–
"Cn1c(=O)c(C#N)c(N2CCN(Cc3ccc(O)c(F)c3)CC2)c2nc(C#N)ccc21 [Example 363, 8-{4-[(3-fluoro-4-hydroxyphenyl)methyl]piperazin-1-yl}-5-methyl-6-oxo-5,6-dihydro-1,5-naphthyridine-2,7-dicarbonitrile]",–,–,0.15,> 240,> 100,–,–,10,–
"Cc1ccc(F)c(CN2CCN(c3c(C#N)c(=O)n(C)c4ccc(Cl)nc34)CC2)c1 [Example 364, 6-chloro-4-{4-[(2-fluoro-5-methylphenyl)methyl]piperazin-1-yl}-1-methyl-2-oxo-1,2-dihydro-1,5-naphthyridine-3-carbonitrile]",–,–,1.1,> 240,> 100,–,–,1.57,10
"COc1cccc(Cl)c1CN1CCN(c2c(C#N)c(=O)n(C)c3ccc(Cl)nc23)CC1 [Example 365, 6-chloro-4-{4-[(2-chloro-6-methoxyphenyl)methyl]piperazin-1-yl}-1-methyl-2-oxo-1,2-dihydro-1,5-naphthyridine-3-carbonitrile]",–,–,3.5,190,> 100,–,–,2.22,10
"Cn1c(=O)c(C#N)c(N2CCN(Cc3cccc4cc[nH]c34)CC2)c2nc(Br)ccc21 [Example 373, 6-bromo-4-{4-[(1H-indol-7-yl)methyl]piperazin-1-yl}-1-methyl-2-oxo-1,2-dihydro-1,5-naphthyridine-3-carbonitrile]",–,–,2.5,100,> 100,–,–,0.26,–
"Cn1c(=O)c(C#N)c(N2CCN(Cc3ccc(C#N)cc3F)CC2)c2nc(Cl)ccc21 [Example 379, 6-chloro-4-{4-[(4-cyano-2-fluorophenyl)methyl]piperazin-1-yl}-1-methyl-2-oxo-1,2-dihydro-1,5-naphthyridine-3-carbonitrile]",–,–,0.38,> 240,–,–,–,7.84,–
"Cn1c(=O)c(C#N)c(N2CCN(Cc3c(O)cccc3Cl)CC2)c2nc(Br)ccc21 [Example 390, 6-bromo-4-{4-[(2-chloro-6-hydroxyphenyl)methyl]piperazin-1-yl}-1-methyl-2-oxo-1,2-dihydro-1,5-naphthyridine-3-carbonitrile]",–,–,0.87,> 240,–,–,–,0.8,–
"Cn1c(=O)c(C#N)c(N2CCN(Cc3c(F)cccc3F)CC2)c2nc(Cl)ccc21 [Example 422, 6-chloro-4-{4-[(2,6-difluorophenyl)methyl]piperazin-1-yl}-1-methyl-2-oxo-1,2-dihydro-1,5-naphthyridine-3-carbonitrile]",–,–,1.4,> 240,> 100,–,–,3.49,–
